Measured values reported in EPA's ToxValDB 9.5 (doi:10.2903/j.efsa.2009.181r).
In brackets after ≈: the same amount, converted by molar mass.

What was measured:
Anas platyrhynchos = settings: short-term; oral; feed; mortality
Pardosa sp. = settings: acute; duration: 7 days; mortality
Daphnia magna = settings: chronic/long-term; duration: 21 days; reproduction
Avena sativa = settings: chronic/long-term; body weight
Bibionidae = settings: chronic/long-term; duration: 28 days; seedling emergence
Apis mellifera = settings: acute; dermal; mortality
Colinus virginianus = settings: mortality

CC(C)N(C(=O)SCC(Cl)=C(Cl)Cl)C(C)C [Tri-allate]
LC50 (Anas platyrhynchos): > 1210 mg/kg-day
LEL (Pardosa sp.): 2280 g/ha
NOEC (Daphnia magna): 0.013 mg/L
NOEC (Avena sativa): 11 g/ha
NOEC (Bibionidae): 0.583 mg/L
LC50 (Oncorhynchus mykiss; acute, duration: 96 hours, mortality): 0.95 µg/mL (≈ 3.12 µM)
NOEC (Oncorhynchus mykiss; chronic/long-term, duration: 88 days, growth): 0.038 mg/L
LD50 (Apis mellifera): > 100 µg/piece
LD50 (Colinus virginianus; acute, oral): 1560 mg/kg-day
NOEC (Colinus virginianus; reproduction developmental): 54 mg/kg-day
NOAEL (Rattus norvegicus; acute, oral, clinical signs): 60 mg/kg-day
LD50 (Rattus norvegicus; acute, oral, mortality): 1100 mg/kg
NOEL (Rattus norvegicus; chronic, M, mortality): 9 mg/kg-day
NOAEL (Rattus norvegicus; chronic, duration: 2 years, oral, diet, mortality): 2.5 mg/kg-day
NOAEL (Rattus norvegicus; subchronic, duration: 90 days, histopathology: nonneoplastic): 6.4 mg/kg-day
LC50 (Tagia sp.; acute, duration: 14 days, mortality): 549 mg/kg
NOEC (Tagia sp.; chronic/long-term, duration: 56 days, reproduction): 27.2 mg/kg
